Reference: patent US20230066011A1, “PYRROLOPYRIMIDINE DERIVATIVE, AND PHARMACEUTICAL COMPOSITION FOR PREVENTING OR TREATING PROTEIN KINASE-RELATED DISEASE COMPRISING SAME AS ACTIVE INGREDIENT” (VORONOI CO., LTD., priority 2019, published 2023)

What was measured:
human GST-DYRK1A = target: T1, human GST-DYRK1A (Homo sapiens, UniProt Q13627); assay: GST-DYRK1A enzyme inhibition, ADP-Glo kinase assay; assay type: biochemical; conditions: ATP 10 μM, GST-DYRK1A full length, read-out: DYRK1 IC50
T1 construct: purified human GST-DYRK1A (full length, Thermo Scientifics) enzyme; purchased Thermo Scientifics
Summary of the method: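 Full-length enzyme (10 ng) was incubated with 10 μM ATP and a specific substrate for 1 h at 25 °C in 40 mM Tris-HCl pH 7.4, 20 mM MgCl2, 0.5 mg/mL BSA, 50 μM DTT. Luminescence was read against a solvent control, and IC50 values were derived from 3 data sets.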

human GST-CLK1 = target: T2, human GST-CLK1 (Homo sapiens, UniProt P49759); assay: GST-CLK1 enzyme inhibition, ADP-Glo kinase assay; assay type: biochemical; conditions: ATP 10 μM, GST-CLK1 129-end
T2 construct: purified human GST-CLK1 (129-end, SignalChem) enzyme; purchased SignalChem
Summary of the method: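 ADP-Glo luminescence read-out, relative to untreated solvent control, gave IC50 (nM) from triplicate data sets. Reactions ran an hour at 25° C with 3 ng GST-CLK1 (residues 129-end), 10 μM ATP and specific substrate in Tris-HCl pH 7.4 buffer with MgCl2, BSA and DTT.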

IL-6 = assay: Inhibition of LPS-induced IL-6 secretion of THP-1 monocytes (ELISA); assay type: cell-based, human; conditions: Homo sapiens, THP-1; compound 0.5 μM, LPS 500 ng/mL, 24 hours; read-out: THP1/IL6 (% inhib)
Description: (§1) To evaluate an inhibitory effect on cytokine secretion of monocytes, THP-1 cells (ATCC, #TIB-202) as a human-derived monocyte line were cultured in an RPMI-1640 (Hyclone, SH30027.01) medium supplemented with 10% fetal bovine serum (Hyclone, SH30084.03), 1% penicillin streptomycin (Welgene, LS202-02), and 50 μM 2-mercaptoethanol (Gibco, #21985023). In the test, the cells were seeded in a 48-well plate (SPL, #30048) at a density of 1.5 to 2×10^5 cells/250 μL per well, and cultured at 37° C. for 16 hours in a 5% CO2 incubator. Thereafter, the compound was diluted with DMSO so that the final concentration of the compound was 0.5 μM. Then, the cells were treated with the diluted compound before an hour of treatment with lipopolysaccharides (LPS) (Sigma, #L6529). After the treatment with the compound, the cells were treated with LPS so that the final concentration was 500 ng/mL. Then, a cell culture broth was collected after 24 hours of culture, and levels of cytokine IL-6 (R&D Systems, #D6050) and TNF-α (R&D Systems, #DTA00D) comprised in the culture broth were measured using respective ELISA kits. After an experiment was performed according to the manufacturer's guidelines, cell analysis was performed by measuring the optical density at 450 nm using a microplate reader.

TNF-α = assay: Inhibition of LPS-induced TNF-α secretion of THP-1 monocytes (ELISA); assay type: cell-based, human; conditions: Homo sapiens, THP-1; compound 0.5 μM, LPS 500 ng/mL, 24 hours; read-out: THP-1/TNF-α (% inhib)
Description: as §1

LRRK2 = LRRK2 (Homo sapiens, UniProt Q5S007); assay: LRRK2 enzyme inhibition, ADP-Glo kinase assay; assay type: biochemical; design: purchased Invitrogen PR8604B; conditions: ATP 10 μM
Summary of the method: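 ADP-Glo luminescent read-out of ADP formed by purified human LRRK2 enzyme (25 ng), 10 μM ATP, 0.2 μg substrate, 25° C for 2 h, Tris-HCl pH 7.4 buffer with MgCl2, BSA, DTT. Inhibition versus untreated solvent control over twelve final concentrations (50 μM downward) gives IC50.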

LRRK2 (G2019S) = LRRK2 (G2019S) (Homo sapiens, UniProt Q5S007, G2019S); assay: LRRK2 G2019S enzyme inhibition, ADP-Glo kinase assay; assay type: biochemical; design: purchased SignalChem L10-12GG; conditions: ATP 25 μM
Summary of the method: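 IC50 derived from luminescent ADP-Glo readout against untreated solvent control, twelve final compound concentrations from 50 μM downward. Reaction: recombinant human LRRK2 G2019S enzyme, 25 μM ATP, substrate, pH 7.4 Tris buffer with MgCl2/BSA/DTT, 25° C. for 2 hours.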

MDA-MB-231 cell line = assay: Inhibition of proliferation of MDA-MB-231 cancer cells (Cell Titer-Glo); assay type: cell-based; conditions: Homo sapiens, 72 hours
Summary of the method: (§2)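 A 72-hour treatment with compound (eleven final concentrations, 3-fold apart, top 10 μM) of cells seeded at 2,000 per well preceded a Cell Titer-Glo luminescence read, from which GI50 was obtained.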

SHP-77 = assay: Inhibition of proliferation of SHP-77 cancer cells (Cell Titer-Glo); assay type: cell-based; conditions: Homo sapiens, SHP77, 72 hours
Summary of the method: as §2

TTK = target: T3, TTK (Homo sapiens, UniProt P33981); assay: TTK enzyme inhibition, ADP-Glo kinase assay; assay type: biochemical; design: purchased SignalChem T20-10G; conditions: ATP 5 μM
T3 sequence (P33981 1-857): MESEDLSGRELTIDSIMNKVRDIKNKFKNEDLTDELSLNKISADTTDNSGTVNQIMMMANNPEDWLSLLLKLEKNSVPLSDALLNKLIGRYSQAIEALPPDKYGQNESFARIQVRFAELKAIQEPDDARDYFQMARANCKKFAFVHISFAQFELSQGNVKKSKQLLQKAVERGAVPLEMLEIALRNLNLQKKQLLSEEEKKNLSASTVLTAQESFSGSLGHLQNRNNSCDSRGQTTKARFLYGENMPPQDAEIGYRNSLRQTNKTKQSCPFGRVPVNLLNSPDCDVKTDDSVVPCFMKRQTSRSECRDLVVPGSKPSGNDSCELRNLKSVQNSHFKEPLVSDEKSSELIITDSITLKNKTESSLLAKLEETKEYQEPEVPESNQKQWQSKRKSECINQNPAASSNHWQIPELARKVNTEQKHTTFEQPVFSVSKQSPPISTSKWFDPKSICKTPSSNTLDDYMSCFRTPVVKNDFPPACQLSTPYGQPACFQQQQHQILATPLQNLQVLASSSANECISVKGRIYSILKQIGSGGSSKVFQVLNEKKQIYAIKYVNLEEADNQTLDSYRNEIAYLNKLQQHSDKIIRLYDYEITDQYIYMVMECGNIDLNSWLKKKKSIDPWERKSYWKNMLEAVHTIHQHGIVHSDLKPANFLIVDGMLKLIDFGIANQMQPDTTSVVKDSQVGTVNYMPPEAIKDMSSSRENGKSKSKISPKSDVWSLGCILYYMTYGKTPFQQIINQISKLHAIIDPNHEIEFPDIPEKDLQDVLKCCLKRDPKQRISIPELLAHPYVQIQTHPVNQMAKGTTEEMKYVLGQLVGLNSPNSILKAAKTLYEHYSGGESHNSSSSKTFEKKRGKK
Description: To evaluate an inhibitory activity of the compound according to the present invention against LRRK2, LRRK2 (G2019S), DYRK1, CLK1, and TTK kinases, experiments were performed as follows.
Each of the Example compounds was reacted with a purified human TTK (SignalChem #T20-10G) enzyme to evaluate an ability to inhibit an enzyme using a method as described below. A composition of 40 mM Tris-HCl (pH 7.4), 20 mM MgCl2, 0.1 mg/mL BSA (a 5× kinase buffer, SignalChem #K03-09), and 50 μM DTT (SignalChem #D86-09B) was used as a reaction buffer, and all reactions of test substances were performed in the reaction buffer. Each of the compounds was diluted […] from a 10 mM DMSO stock using a serial dilution method, and enzyme activities were measured at final compound concentrations of 1, 0.333333, 0.111111, 0.037037, 0.012346, 0.004115, 0.001372, 0.000457, 0.000152, 0.000051, and 0.000017 μM. In the test, purified ATP (5 μM, Promega #V6930) and an MBP enzyme substrate (0.2 μg, SignalChem M42-51N) were reacted with a human TTK (7.5 ng) enzyme at 25° C. for 4 hours, and the enzyme activities were then determined using an in vitro ADP-Glo™ kinase assay (Promega #V6930). An enzyme-activity reaction solution, an ADP-Glo reaction solution, and an enzyme-ability detection solution were reacted at a ratio of 2:2:1 to measure a degree of inhibition of the enzyme activity with luminescence. The degree of inhibition of the enzyme activity according to the treatment concentration of each of the compounds was calculated based on the fluorescence of the enzyme activity of the solvent control which was not treated with the compound. In this case, the concentration of each of the compounds inhibiting 50% of the enzyme activity was determined to be an IC50 (nM) value, and calculated using Prism (Version 8.2 GraphPad) software.

LRRK2, sequence (Q5S007 970-2527 limits assumed): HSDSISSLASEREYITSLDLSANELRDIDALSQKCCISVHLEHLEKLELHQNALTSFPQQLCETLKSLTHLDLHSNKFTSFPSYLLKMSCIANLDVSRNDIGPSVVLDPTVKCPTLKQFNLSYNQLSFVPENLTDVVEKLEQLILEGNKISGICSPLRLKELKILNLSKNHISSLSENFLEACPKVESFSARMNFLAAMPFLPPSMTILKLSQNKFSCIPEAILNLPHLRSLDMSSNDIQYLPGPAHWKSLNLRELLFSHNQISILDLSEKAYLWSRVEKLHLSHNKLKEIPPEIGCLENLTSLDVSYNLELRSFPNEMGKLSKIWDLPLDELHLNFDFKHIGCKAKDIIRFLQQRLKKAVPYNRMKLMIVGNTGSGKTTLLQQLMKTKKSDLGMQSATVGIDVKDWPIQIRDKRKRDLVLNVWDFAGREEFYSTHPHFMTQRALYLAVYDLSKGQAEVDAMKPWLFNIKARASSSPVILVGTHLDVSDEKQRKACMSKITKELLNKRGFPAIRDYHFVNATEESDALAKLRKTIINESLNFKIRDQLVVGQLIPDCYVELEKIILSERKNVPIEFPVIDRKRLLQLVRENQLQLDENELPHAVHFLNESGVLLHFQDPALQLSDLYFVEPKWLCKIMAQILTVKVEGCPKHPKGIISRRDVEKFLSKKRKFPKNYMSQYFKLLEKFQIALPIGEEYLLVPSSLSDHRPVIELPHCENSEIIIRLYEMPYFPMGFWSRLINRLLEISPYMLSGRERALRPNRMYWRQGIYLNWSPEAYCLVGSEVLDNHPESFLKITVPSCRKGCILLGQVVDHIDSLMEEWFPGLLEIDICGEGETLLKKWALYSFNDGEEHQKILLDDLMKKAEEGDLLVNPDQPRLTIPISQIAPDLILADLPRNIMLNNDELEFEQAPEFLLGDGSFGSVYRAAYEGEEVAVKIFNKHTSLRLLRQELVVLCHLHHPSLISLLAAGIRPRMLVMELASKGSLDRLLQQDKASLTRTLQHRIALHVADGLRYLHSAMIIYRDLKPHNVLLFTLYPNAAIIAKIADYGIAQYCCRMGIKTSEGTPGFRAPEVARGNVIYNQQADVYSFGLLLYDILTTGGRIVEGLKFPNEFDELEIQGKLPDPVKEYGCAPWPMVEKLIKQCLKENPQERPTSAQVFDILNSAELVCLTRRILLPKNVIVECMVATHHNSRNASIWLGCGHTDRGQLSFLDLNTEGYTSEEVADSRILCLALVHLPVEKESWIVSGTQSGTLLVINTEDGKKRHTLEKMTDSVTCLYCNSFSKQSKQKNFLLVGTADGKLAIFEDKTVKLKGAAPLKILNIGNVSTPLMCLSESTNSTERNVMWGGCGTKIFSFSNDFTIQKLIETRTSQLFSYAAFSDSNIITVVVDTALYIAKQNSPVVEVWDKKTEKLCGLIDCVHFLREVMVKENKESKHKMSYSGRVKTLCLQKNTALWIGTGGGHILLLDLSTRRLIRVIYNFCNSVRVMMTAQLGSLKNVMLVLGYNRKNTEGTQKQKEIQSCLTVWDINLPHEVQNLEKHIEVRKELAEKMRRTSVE
LRRK2 (G2019S), sequence (Q5S007 970-2527 G2019S limits assumed): as the sequence (Q5S007 970-2527 limits assumed) above, with G1050S counted along it
T2 sequence (P49759 129-484 limits assumed): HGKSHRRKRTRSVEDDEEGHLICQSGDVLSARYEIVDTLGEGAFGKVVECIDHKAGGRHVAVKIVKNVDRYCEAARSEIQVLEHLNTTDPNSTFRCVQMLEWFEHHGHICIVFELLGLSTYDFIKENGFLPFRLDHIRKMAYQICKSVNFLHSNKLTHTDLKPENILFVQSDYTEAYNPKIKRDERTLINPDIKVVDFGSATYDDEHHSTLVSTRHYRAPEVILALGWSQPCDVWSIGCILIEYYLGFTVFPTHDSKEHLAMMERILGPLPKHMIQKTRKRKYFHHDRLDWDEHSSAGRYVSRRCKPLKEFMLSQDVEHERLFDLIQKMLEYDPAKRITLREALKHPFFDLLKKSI

Row | SMILES | IC50 (human GST-DYRK1A) | IC50 (human GST-CLK1) | IC50 (LRRK2) | IC50 (LRRK2 (G2019S)) | GI50 (MDA-MB-231 cell line) | GI50 (SHP-77) | IC50 (TTK) | inhibition at 0.5 µM (IL-6) | inhibition at 0.5 µM (TNF-α)
1 | CCNc1nc(Nc2ccc(C(=O)N3CCC(N4CCOCC4)CC3)c3c2OCO3)nc2[nH]cc(C(F)(F)F)c12 [Example 213, (7-((4-(ethylamino)-5-(trifluoromethyl)-7H-pyrrolo[2,3-d]pyrimidin-2-yl)amino)benzo[d][1,3]dioxol-4-yl)(4-morpholinopiperidin-1-yl)methanone] | < 0.1 µM | < 0.1 µM | < 0.1 µM | < 0.1 µM |  |  |  | 32.4% | 11.5%
2 | CCNc1nc(Nc2ccc(C(=O)N3CCOCC3)c3c2OCO3)nc2[nH]cc(C(F)(F)F)c12 [Example 212, (7-((4-(ethylamino)-5-(trifluoromethyl)-7H-pyrrolo[2,3-d]pyrimidin-2-yl)amino)benzo[d][1,3]dioxol-4-yl)(morpholino)methanone] | < 0.1 µM | < 0.1 µM | < 0.1 µM | < 0.1 µM |  |  |  | 12.6% | 
3 | CC[C@@H](C)Nc1nc(Nc2ccc(S(=O)(=O)N3CCOCC3)cc2OC)nc2[nH]cc(C#N)c12 [Example 67, (R)-4-(sec-butylamino)-2-((2-methoxy-4-(morpholinosulfonyl)phenyl)amino)-7H-pyrrolo[2,3-d]pyrimidine-5-carbonitrile] | 0.301 to 1 µM | 0.301 to 1 µM |  |  | < 50 nM | < 50 nM | < 0.1 µM |  | 

Now from value to compound, other results behind:

Row | IC50 (human GST-DYRK1A) | IC50 (human GST-CLK1) | IC50 (LRRK2) | IC50 (LRRK2 (G2019S)) | GI50 (MDA-MB-231 cell line) | GI50 (SHP-77) | IC50 (TTK) | SMILES | inhibition at 0.5 µM (IL-6) | inhibition at 0.5 µM (TNF-α)
4 | < 0.1 µM | < 0.1 µM | < 0.1 µM | < 0.1 µM |  |  |  | CCNc1nc(Nc2ccc(C(=O)N3CC[C@@H](N4CCOCC4)C3)c3c2OCC3)nc2[nH]cc(C(F)(F)F)c12 [Example 476, (R)-(7-((4-(ethylamino)-5-(trifluoromethyl)-7H-pyrrolo[2,3-d]pyrimidin-2-yl)amino)-2,3-dihydrobenzo-furan-4-yl)(3-morpholino-pyrrolidin-1-yl)methanone] | 47.4% | 24.5%
5 | < 0.1 µM | < 0.1 µM | < 0.1 µM | < 0.1 µM |  |  |  | CNc1nc(Nc2ccc(C(=O)N3CC[C@@H](N4CCOCC4)C3)c3c2OCC3)nc2[nH]cc(C(F)(F)F)c12 [Example 237, (R)-(7-((4-(methylamino)-5-(trifluoromethyl)-7H-pyrrolo[2,3-d]pyrimidin-2-yl)amino)-2,3-dihydrobenzofuran-4-yl)(3-morpholinopyrrolidin-1-yl)methanone] | 41.1% | 18.9%
6 | < 0.1 µM | < 0.1 µM | < 0.1 µM | < 0.1 µM |  |  |  | CNc1nc(Nc2ccc(C(=O)N3CCC(N4C[C@@H]5C[C@H]4CO5)CC3)c3c2OCC3)nc2[nH]cc(C(F)(F)F)c12 [Example 230, (4-((1S,4S)-2-oxa-5-azabicyclo[2.2.1]heptan-5-yl)piperidin-1-yl)(7-((4-(methylamino)-5-(tifluoromethyl)-7H-pyrrolo[2,3-d]pyrimidin-2-yl)amino)-2,3-dihydrobenzofuran-4-yl)methanone] | 34% | 1%
7 | < 0.1 µM | < 0.1 µM | < 0.1 µM |  |  |  |  | COCCNc1nc(Nc2ccc(C(=O)N3C[C@@H]4C[C@H]3CO4)c3c2OCCO3)nc2[nH]cc(C(F)(F)F)c12 [Example 410, ((LS,4S)-2-oxa-5-azabicyclo[2.2.1]heptan-5-yl)(8-((4-((2-methoxy-ethyl)amino)-5-(trifluoromethyl)-7H-pyrrolo[2,3-d]pyrimidin-2-yl)amino)-2,3-dihydrobenzo[b] [1,4]dioxin-5-yl)methanone] | 17.8% | 
8 | < 0.1 µM | < 0.1 µM | < 0.1 µM |  |  |  |  | O=C(c1ccc(Nc2nc(NC3CCOCC3)c3c(C(F)(F)F)c[nH]c3n2)c2c1OCCO2)N1CCN(C2COC2)CC1 [Example 420, (4-(oxetan-3-yl)piperazin-1-yl)(8-((4-((tetrahydro-2H-pyran-4-yl)amino)-5-(trifluoromethyl)-7H-pyrrolo[2,3-d]pyrimidin-2-yl)amino)-2,3-dihydrobenzo[b] [1,4]dioxin-5-yl)methanone] | 20.2% | 31.6%
